Structures can show the parent of a compound that is named as a salt.
Tests used:
[1] = biological target: T1, Pyrococcus furiosus α-amylase, purified, wild type, SEQ ID NO:1 (Pyrococcus furiosus, UniProt P49067); assay: activity stained native-PAGE after heating samples with additive; assay type: biochemical; conditions: sample heated 15 minutes
T1 construct: made in house; host or cells: Pyrococcus furiosus DSM 3638, native cells (not recombinant); cytosolic fraction, three ion exchange steps and electroelution
T1 sequence (P49067 2-649): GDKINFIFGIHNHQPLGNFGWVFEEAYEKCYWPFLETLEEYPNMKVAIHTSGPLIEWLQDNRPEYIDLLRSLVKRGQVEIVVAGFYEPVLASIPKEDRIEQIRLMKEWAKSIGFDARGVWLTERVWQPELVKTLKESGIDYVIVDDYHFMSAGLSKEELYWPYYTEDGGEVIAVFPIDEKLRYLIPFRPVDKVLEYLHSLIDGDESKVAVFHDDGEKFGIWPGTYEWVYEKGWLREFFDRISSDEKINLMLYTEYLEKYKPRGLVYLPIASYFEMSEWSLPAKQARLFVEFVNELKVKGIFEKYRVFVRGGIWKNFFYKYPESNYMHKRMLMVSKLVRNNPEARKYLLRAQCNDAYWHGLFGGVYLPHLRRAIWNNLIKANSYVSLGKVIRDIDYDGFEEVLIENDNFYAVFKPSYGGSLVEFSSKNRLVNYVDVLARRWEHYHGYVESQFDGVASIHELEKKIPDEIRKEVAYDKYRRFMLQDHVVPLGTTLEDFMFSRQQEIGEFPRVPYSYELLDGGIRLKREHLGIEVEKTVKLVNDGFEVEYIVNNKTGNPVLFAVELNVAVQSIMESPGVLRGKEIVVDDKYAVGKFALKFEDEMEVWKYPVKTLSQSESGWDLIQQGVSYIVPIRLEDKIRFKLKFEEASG
Method: Samples were heated 15 min in the following: Lane 1, 100 mM sodium phosphate pH 7.0; Lane 2, 5 mM EDTA; Lane 3, % SDS; Lane 4, 12% β-mercaptoethanol. The samples were run on a native gel (8% acrylamide), containing 0.02% starch, and stained as described in the Examples.
Activity staining was accomplished by the incorporation of starch into the acrylamide matrix of the resolving gel. When preparing the gels, as described above, 0.05% soluble starch was used in place of distilled water when the gels were cast. To observe the thermophilic amylase activity following electrophoresis the spacers and the gel left between the glass plates were sealed with Saran Wrap to prevent dessication. The gel, between the plates, was then incubated for 30 minutes at 98° C., then stained with iodine solution (see above). […] Following this procedure it was still possible to stain the gel with Coomassie blue to visualize the proteins within the gel.
To determine the effect of denaturants and metal ions on the activity of P. furiosus α-amylase activity, stained native-PAGE or in vitro activity assays were utilized.

[2] = biological target: T1, Pyrococcus furiosus α-amylase, purified, wild type, SEQ ID NO:1; assay: standard activity assay in the presence of denaturants; assay type: biochemical; conditions: reagent present at 1M, 98° C.
Method: The dextrinizing activity of the α-amylase was determined using a modification of the assay of Manning and Campbell (Manning et al, J. Biological Chem. 236(11):2952-2957 (1961)). To 20 μl of sample were added 20 μl of 1% soluble starch and 20 μl of 100 mM sodium phosphate, pH 7.0. Controls were prepared using an equal volume of the appropriate buffer in place of the enzyme solution. The samples were incubated at 92° C. for 10 minutes and the reaction terminated by cooling in ice water. Color was developed by the addition of 15 μl of an iodine solution (4% KI, 1.25% I). An additional 1 ml of distilled water was added to each sample to dilute the color of the sample to a measurable range. The absorbance was read at 600 nm with a Pharmacia LB Ultraspec III Spectrophotometer. One unit of α-amylase activity was defined as the amount of protein which hydrolyzed 1 mg of starch per minute.
The extent of activity loss induced by the denaturants, urea and guanidine HCl, was determined using a standard activity assay in which the above-mentioned reagents were present in 1M concentrations. At 98° C. the residual activity in the presence of these denaturants was 86.5% and 73% for urea and guanidine HCl, respectively.

SMILES	residual activity in the presence of denaturant [2] [%]	further results
O=C(O)CN(CCN(CC(=O)O)CC(=O)O)CC(=O)O [EDTA]		effect on activity (activity stained native-PAGE) ([1]; 5 mM EDTA): no significant effect on activity
N=C(N)N [guanidine HCl]	73	
NC(N)=O [urea]	86.5	
OCCS [β-mercaptoethanol]		effect on activity (activity stained native-PAGE) ([1]; 2% β-mercaptoethanol): no significant effect on activity
